# From US20080009623A1, “Pyrimidine compounds” (Eisai R&D Management Co., Ltd., priority 2006, published 2008)
# Tests used:
# [1] = biological target: T1, Human adenosine A1 receptor (Homo sapiens, UniProt P30542); assay: Adenosine A1 receptor binding experiment (3H-CCPA displacement, CHOK1 membrane specimen); conditions: calculated from IC50 by Cheng-Prusoff's expression; 3H-CCPA binding, membranes of CHOK1 cells over-expressing human A1, 30° C., 120 minutes; read-out: inhibition constant (Ki value)
# T1 construct: expressed in transfected cells; host or cells: CHOK1 cells (membrane specimen)
# T1 sequence (P30542 1-326): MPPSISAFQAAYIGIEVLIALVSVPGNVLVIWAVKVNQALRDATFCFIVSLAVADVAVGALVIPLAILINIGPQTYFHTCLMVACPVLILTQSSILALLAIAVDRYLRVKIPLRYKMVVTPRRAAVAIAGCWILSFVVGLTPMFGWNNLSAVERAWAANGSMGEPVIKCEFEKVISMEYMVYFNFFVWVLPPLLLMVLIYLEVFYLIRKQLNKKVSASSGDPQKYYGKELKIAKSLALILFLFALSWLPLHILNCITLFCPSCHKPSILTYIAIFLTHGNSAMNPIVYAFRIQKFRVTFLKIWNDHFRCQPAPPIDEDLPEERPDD
# Method: Human adenosine A1 receptor cDNA was subjected to an over-expression in CHOK1 cells and its membrane specimen was suspended in a 20 mM HEPES buffer (containing 10 mM MgCl2 and 100 mM NaCl; pH 7.4) to make the protein concentration of 66.7 μg/mL. To 0.45 mL of this membrane specimen suspension were added 0.025 mL of tritium-labeled 60 nM chlorocyclopentyl adenosine (^3H-CCPA, manufactured by NEN corporation) and 0.025 mL of a solution of the compound of the present invention. The mixture was allowed to stand at 30° C. for 120 minutes, subjected to a quick suction on a glass fiber filter (GF/B; manufactured by Whatman) and immediately washed with 5 mL of water-cooled 50 mM Tris-HCl buffer twice. After that, the glass fiber filter was transferred to a vial bottle, a scintillator was added, and the radioactivity on the filter was measured by a liquid scintillation counter. […]
# At this point, total binding amount is a ^3H-CCPA binding radioactivity in the absence of the compound of the present invention, non-specific binding amount is a ^3H -CCPA binding radioactivity in the presence of 100 μM of RPIA ([R]-[1-methyl-2-phenylethyl]adenosine), and binding amount in the presence of the compound of the present invention is a ^3H-CCPA binding radioactivity in the presence of the compound of the present invention of various concentrations.
# [2] = biological target: T2, Human adenosine A2B receptor (Homo sapiens, UniProt P29275); assay: Inhibition of NECA-stimulated cAMP production in A2B receptor expressed cells; assay type: cell-based; conditions: CHOK1 cells over-expressing human A2B; 30 nM NECA; in the presence of Ro-20-1724; cAMP enzyme immunoassay; read-out: 50% inhibitory concentration (IC50) for NECA-stimulated cAMP production
# T2 construct: expressed in transfected cells; host or cells: CHOK1 cells
# T2 sequence (P29275 1-332): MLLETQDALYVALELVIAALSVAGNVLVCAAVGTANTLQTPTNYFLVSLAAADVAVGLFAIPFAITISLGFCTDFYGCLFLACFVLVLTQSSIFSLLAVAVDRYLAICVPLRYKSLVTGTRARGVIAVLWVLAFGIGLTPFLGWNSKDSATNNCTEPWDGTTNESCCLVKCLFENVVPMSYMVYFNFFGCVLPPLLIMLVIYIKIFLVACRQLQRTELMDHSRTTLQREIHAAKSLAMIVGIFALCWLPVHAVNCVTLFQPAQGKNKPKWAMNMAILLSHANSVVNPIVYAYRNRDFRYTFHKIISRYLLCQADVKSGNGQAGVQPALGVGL
# Method: Human adenosine A2B receptor was over-expressed in CHOK1 cells. The cells were uniformly placed on a 24-well plate at the rate of 1.5×10^5 cells/well, incubated for one night and then used for the experiments. The inhibition rate of the compound of the present invention for the amount of cAMP produced by stimulation of 30 nM of 5′-N-ethylcarboxyamideadenosine (NECA; manufactured by Sigma corporation) was evaluated as affinity of the compound of the present invention to the A2B receptor. Thus, after washing adherent cells with 2 mL/well of a Krebs-Ringer buffer (containing 0.1 % BSA; pH7.4) twice, a pre-incubation was carried out at 0.5 mL/well for 30 minutes. After that, […] of a mixed solution containing NECA and the compound of the present invention were added in the presence of Ro-20-1724 (manufactured by RBI corporation) which is a phosphodiesterase inhibitor. 15 minutes after pre-incubation, the reaction was stopped by adding 0.1N HCl to the reaction solution. Measurement of cAMP was carried out using a cAMP enzyme immunoassay kit manufactured by Amersham corporation. Calculation of the inhibition rate of the compound of the present invention to the NECA-stimulated cAMP production was carried out by the following expression. […]
smiles,measurement,setting,value
"Cn1cc(-c2c(O)nc(N)nc2-c2ccco2)ccc1=O [the compound of the present invention, 5-[2-amino-4-(2-furyl)-6-hydroxypyrimidin-5-yl]-1-methylpyridin-2(1H)-one]",Ki,[1],157 nM
same,IC50,[2],72.7 nM
